Drawing on PubChem BioAssay (NCI), this text covers GI50 and TGI for eleven compounds.

Common to all, as to experiment: growth of human tumour cells (NCI), 48 h
In test [1] the test system is SK-MEL-28 melanoma.
In test [2] the test system is HCT-116 colon.
In test [3] the test system is CCRF-CEM leukemia.
Test [4] concerns HCT-15 colon.
The test system of test [5] is UACC-62 melanoma.
In test [6] the test system is NCI-H460 lung.
The subject of test [7] is MALME-3M melanoma.
The subject of test [8] is SNB-75 CNS.
The subject of test [9] is M14 melanoma.
Test [10] relates to RXF 393 renal.

Values joined by “and” are separate entries in the source; they are usually repeats but may differ in a detail not shown here. Equal entries are not always repeated.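 All cell lines were grown in 96-well plates and treated with compound for 48 hours. The concentration for 50% growth inhibition is given as GI50. TGI is the concentration that stops growth completely.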

Turning to `CC(=O)N1CCN(C2=Nc3ccccc3CO2)C1=S`, the GI50 in test [1] is over 100 µM; in test [2] it was 89.8 µM; in test [3], 32.9 µM; in test [4], 57.8 µM; in test [5] it was 83 µM; in [6], 70.5 µM. Further, the GI50 is 26 µM in [7], 40.1 µM in [8] and 51.3 µM in test [9]. For the same compound, the TGI in test [1], in test [2], in test [3], in test [4], in [5] and in [6] was over 100 µM in each case. Also, the TGI in test [7] is 89 µM; in [8] it was over 100 µM; in test [9] it was over 100 µM.
For the compound `CC(C)(C)OC(=O)NCCNC1=CC(=O)c2nc3ccccc3c3ccnc1c23`, the GI50 is 13.3 µM in test [1]; 22.3 µM in test [2]; 19.3 µM in test [4]; 19.6 µM in test [5]; 15.2 µM in test [6]; 32 µM in test [7]. Also, the GI50 in [8] was 17.8 µM; in test [9] it was 18.5 µM. For the same compound, the TGI in [1] is 28.9 µM; in [2], over 100 µM; in test [4] it was 47.9 µM; in test [5] it was 43.2 µM; in test [6], 43.1 µM; in test [7] it was 81.8 µM. Further, the TGI in [8] amounted to 42.6 µM; in test [9], 61.1 µM.
As for `CCC(C)CN1C(=O)NC(C)(Cc2ccccc2)C1=O` (stereo not given), the TGI in [1], in [6], in [7], in test [10], in [8] and in test [9] was over 100 µM throughout.
Regarding `O=C(Nc1ccc(Cl)cc1Cl)c1ccc(NC2=C(Cl)C(=O)N(Cc3ccccc3)C2=O)cc1`, the GI50 was 34.2 µM in [2]; 1.99 µM in test [3]; 16.8 µM in [4]; 18.6 µM in [5]; 15.8 µM in test [6]; 17.6 µM in [10]. Also, in [9], the GI50 was 64.6 µM. Further, the TGI was over 100 µM in test [2]; 6.84 µM in [3]; over 100 µM in [4]; 35.3 µM in test [5]; 37.9 µM in [6]; 38.8 µM in test [10]. Moreover, in test [9], the TGI was over 100 µM.
Regarding `COC(=O)Cc1cc(OC)c(OC)cc1Br`, the TGI in [1], in test [2], in [3], in [5], in [6] and in test [7] was over 100 µM each time. The TGI in test [8] and in [9] was over 100 µM throughout.
Take `O=C(c1ccc2ccccc2c1O)N1CCCCC1`: the TGI in test [1], in test [2], in [3], in [4], in test [5] and in test [6] was over 100 µM each time. In addition, the TGI in test [10], in test [8] and in [9] was over 100 µM in each case.
For `O=[As](O)(O)c1ccc(NCc2ccccc2)cc1`, the TGI in test [1], in test [2], in [4], in test [5], in test [6] and in test [7] was over 100 µM in each case. The TGI in [10], in test [8] and in test [9] was over 100 µM throughout.
Regarding `CN1CCc2cc3c(cc2C1O)OCO3` (stereo not given), the TGI is 22.3 µM and > 100 µM in test [1]; 36.2 µM and > 100 µM in test [2]; over 100 µM in test [3]; 45 µM and > 100 µM in test [4]; 35.2 µM and > 100 µM in test [10]; 17.9 µM and > 100 µM in test [8]. In addition, in [9], the TGI is 37.8 µM and > 100 µM. Further, the GI50 in test [2] was 19.2 µM and > 100 µM; in [3], 10.1 µM and > 100 µM; in [4], 20.8 µM and > 100 µM; in test [10], 17.9 µM and > 100 µM; in [9] it was 16.7 µM and > 100 µM.
Regarding `O=C(c1ccccc1)c1c(NCC(O)CN2CCCC2)n(Cc2ccccc2)c(=O)n(Cc2ccccc2)c1=O` (stereo not given), the GI50 in [1] was 17.6 µM; in [2], 15 µM; in test [3], 24.3 µM; in test [4], 17 µM; in test [5], 17.4 µM; in test [6], 19.8 µM. Also, the GI50 was 21.6 µM in test [10], 16.9 µM in test [8] and 17.5 µM in test [9]. Besides, the TGI is 32.3 µM in test [1]; 28.2 µM in test [2]; 63.6 µM in [3]; 32.2 µM in test [4]; 33.2 µM in test [5]; 38.9 µM in test [6]. For the same compound, the TGI in test [10] is 53.3 µM; in test [8], 47.3 µM; in test [9] it was 33.9 µM.
With `CCC[CH2][Sn]([CH2]CCC)([O]C(=O)c1c(F)cccc1F)[O]C(=O)c1c(F)cccc1F`, the GI50 is 0.599 µM in [1]; 1.02 µM in [2]; 1.09 µM in [4]; 0.884 µM in test [5]; 1.54 µM in test [6]; 0.462 µM in test [7]. In addition, the results for the GI50 in [10], in test [8] and in test [9] were 0.242 µM, 0.509 µM and 1.08 µM, respectively. The TGI was 1.87 µM in [1]; 2.25 µM in test [2]; 2.28 µM in [4]; 2.1 µM in [5]; 2.9 µM in [6]; 1.8 µM in test [7]. Further, the TGI was 0.844 µM in test [10], 1.82 µM in test [8] and 2.26 µM in [9].
Take `COc1cccc([C@H]2CC(=O)c3cc4c(cc3N2)OCO4)c1`: the TGI is over 100 µM in test [1]; over 100 µM in test [2]; over 100 µM in [3]; over 100 µM in [4]; 0.0965 µM in test [5]; 0.713 µM in test [10]. Moreover, the TGI in test [8] was over 100 µM. For the same compound, the GI50 in [2] was 0.0604 µM; in test [3], 0.0586 µM; in test [4] it was 0.0434 µM; in [5] it was 0.0226 µM; in test [9], 0.0864 µM.
